The values below come from US20140314752A1, “METHODS FOR TREATING CANCER USING TOR KINASE INHIBITOR COMBINATION THERAPY” (Signal Pharmaceuticals, LLC, priority 2013, published 2014).

Holding throughout (format): cell-based, human
Test [1] has as its system Lenalidomide-resistant H929 cell lines (H929 R10-1 through 4). Briefly: Anti-proliferative effect on lenalidomide-resistant H929 cell lines. As to conditions: lenalidomide-resistant H929 lines with ~50% reduction in cereblon protein. Here is the method:
Cell density and viability were monitored using the Vi-cell XR cell viability analyzer (Beckman Coulter). Once cell viability was >90% and cell density was ˜5×10^5 cells/mL (log phase), the cells were incubated at the indicated concentrations of a TOR kinase inhibitor and/or second active agent at a final concentration of 0.1% vehicle (DMSO). For combination studies, the TOR kinase inhibitor and the second active agent were simultaneously added to cells in triplicate. Cell proliferation was determined after 5 days of treatment by flow cytometry on unfixed cells and using 7-aminoactinomycin D (7AAD) (Molecular Probes, Carlsbad, Calif., USA) exclusion (0.25% final dye concentration) for viability assessment. Flow cytometry was utilized to gate on the target cells and to measure 7AAD negative and 7AAD positive cells. Stained cells were analyzed on a FACS Array flow cytometer with standard BD FACS Array System software (BDBiosciences, Palo Alto, Calif.). The percentage of surviving cells (7AAD negative) was calculated relative to cells treated with vehicle (DMSO) control. For single compound treatments (TOR kinase inhibitor and second active agents separately), the average values from triplicates were plotted to obtain IC50 values using software XLfit from IDBS. […]

In test [2] the test system is lenalidomide-sensitive and resistant myeloma cell lines. Nature of the test: Combination effects in lenalidomide-sensitive and resistant myeloma cell lines. As to conditions: multiple myeloma cell lines in vitro.
Excerpt: Cell lines and cell culture: Cell lines were purchased from American Type Culture Collection (ATCC) and maintained in culture medium recommended by ATCC. […] Multiple myeloma (MM) cell lines that were used or can be used include the following: NCI-H929, LP-1, MM1.s, U266B1, DF-15 and RPMI-8226 human MM-derived cell lines. The […] ® resistant cell lines H929/R1, H929/R2, H929/R3 and H929/R4 were established by continuous exposure of H929 parental cells (H929) to increasing concentrations of […] ® for a minimum of 5 months. The control cell line H929/D was established by continuous exposure of H929 parental cells to 0.1% DMSO.
The number of cells affected by compound treatment was normalized to the DMSO control (100% viability) and the data was imported into the CalcuSyn software (V2.1, Biosoft). Synergism was quantitated by the combination index (CI) using CalcuSyn according to Chou-Talalay's CI method with mathematical modeling and simulations. […] ED50 is the median effect dose at which a 50% growth inhibition is achieved.
Cell density and viability were monitored using the Vi-cell XR cell viability analyzer (Beckman Coulter). […] Cell proliferation was determined after 5 days of treatment by flow cytometry on unfixed cells and using 7-aminoactinomycin D (7AAD) (Molecular Probes, Carlsbad, Calif., USA) exclusion (0.25% final dye concentration) for viability assessment. […]
In test [3] the test system is HepG2 cells. Briefly: Anchorage independent growth (colony formation) assay. As to conditions: single agent, concentrations of 0.1 to 100 μM. How it is done:
(§1) Cell Lines/Cells. Human cell lines HepG2 and SK-Hep-1 cells were obtained from American Type Culture Collection (ATCC; Manassas, Va.). Cells were cultured in DMEM (Dulbecco's Modified Eagle's Medium) (Mediatech; Mannasas, Va.) with 10% Premium FBS (Lonza, Walkersville, Md.).
(§2) (1) Single Agent Colony Formation Assay. Nobel Agar (1.2 grams; BD; Franklin Lakes, N.J.) was placed in a 100-mL sterile bottle. Sterile water (100 mL) was added and microwaved until the agar boiled. Equal volumes of agar and 2×RPMI medium (ECE Scientific; Doylestown, Pa.) were mixed and 300 μL were transferred to each well in a 24-well flat bottom plate (BD; Franklin Lakes, N.J.). Plates were kept at 4° C. until the agar solidified. Cultures of HepG2 and SK-Hep-1 cells were harvested and resuspended in culture medium at 3.6×10^3 cells/mL. Equal volumes of agar, 2×RPMI, and cell suspension (1:1:1) were mixed in a sterile tube and 500 μL/well were immediately transferred into the 24-well plates. Plates were kept at 4° C. until the agar solidified. Culture medium (500 μL) containing compound or DMSO was added to each well (final DMSO concentration for each treatment was 0.2%). Compound 1 was tested at final concentrations of 0.1, 0.3, 1, 3, 10 and 30 μM. […]
(§3) Significance versus the DMSO control was calculated using One Way ANOVA and Dunnett's Post test or unpaired t tests using GraphPad Prism v5.01.

Test [4] concerns SK-Hep-1 cells. The description is as above. As to conditions: single agent, concentrations of 0.1 to 100 μM. Here is the method:
as §1, §2, §3

As to `CCN1C(=O)CNc2ncc(-c3ccc(-c4nc[nH]n4)nc3C)nc21` [Compound 2, 1-ethyl-7-(2-methyl-6-(1H-1,2,4-triazol-3-yl)pyridin-3-yl)-3,4-dihydropyrazino[2,3-b]pyrazin-2(1H)-one], in test [1], the “Anti proliferative effects, single agent” value is reported as “potent anti proliferative effects”. The “Dependence of activity on cereblon protein levels” value in test [2] is recorded as “independent of cereblon protein levels”.
As for `CO[C@H]1CC[C@H](N2C(=O)CNc3ncc(-c4ccc(C(C)(C)O)nc4)nc32)CC1` [Compound 1, 7-(6-(2-hydroxypropan-2-yl)pyridin-3-yl)-1-((1r,4r)-4-methoxycyclohexyl)-3,4-dihydropyrazino-[2,3-b]pyrazin-2(1H)-one], in test [1], the “Anti proliferative effects, single agent” value is “potent anti proliferative effects”. Also, in test [2], the “Dependence of activity on cereblon protein levels” value is “independent of cereblon protein levels”. The Anti-colony forming activity result in test [3] is “dose-dependent and significant anti-colony forming activity”; in test [4] it was “dose-dependent and significant anti-colony forming activity”.
